# Reference: US6926936B2, “Ink-jet recording sheet with improved ozone resistance” (Felix Schoeller Jr. Foto-und Spezialpapiere GmbH & Co. KG, priority 2002, dated 2005)
# Test: Dissociation constant (Kb, pKb) of the water-soluble compounds
Kb (dissociation constant),Compound,pKb
–,O=C([O-])c1ccc(O)cc1.[Na+] [4-Hydroxybenzoic acid Na salt],12.1
1 × 10^−3,O.O.O.O.O.O.O.O.O.[Na+].[Na+].[Na+].[S-]c1nc([S-])nc([S-])n1 [Trisodium trithiocyanurate nonahydrate],3
